This is an account of results in the SangsterLogP compilation.

The first data set in a line: method code SF-FL/RC, from DOI: 10.1007/bf00499868, PMID: 43479.
Settings: not given
The logP is the decadic logarithm of the partition coefficient of the neutral form, usually between octanol and water. As to `CC(N)C(O)c1ccc(O)c(O)c1` (stereo unspecified), the logP is -1.43.
Still for that read-out and setting: the value for `COc1cc(C(O)CN)ccc1O` (stereo unspecified) was -1.05.
As for `C[C@H](N)[C@H](O)c1cccc(O)c1`, the logP was -0.27.
Regarding `CNCC(O)c1ccc(O)c(OC)c1` (stereo unspecified), the lipophilicity (logP) is -0.64.
For the compound `CNCC(O)c1ccc(O)cc1` (stereo unspecified), the logP was -0.45.
For the compound `CNC[C@H](O)c1ccc(O)c(O)c1`, the lipophilicity (logP) is -1.37.
Regarding `COc1cc(CCN)ccc1O`, the lipophilicity (logP) was -0.08.
Regarding `NCC(O)c1ccc(O)cc1` (stereo unspecified), the logP is -0.75.

Staying with this data set, now noted: pH 7.4.
As usually defined, the logD is lipophilicity at a set pH, counting ionised and neutral species. Lower therefore signals a more hydrophilic compound. For `COc1cc(C(O)CO)ccc1O` (stereo unspecified), the logD was -0.58.
`COc1cc(CCO)ccc1O` registered a pH-dependent lipophilicity (logD) of 0.47.
`OCC(O)c1ccc(O)c(O)c1` (stereo unspecified): the log distribution coefficient (logD) was -1.01.
